Test results published in paper PMC8840081, “Phenylalanine-Based AMPA Receptor Antagonist as the Anticonvulsant Agent with Neuroprotective Activity—In Vitro and In Vivo Studies” (Molecules, 2022).

Experiments:
[1] = tested on: heat hyperalgesia in diabetic mice; test: diabetic (STZ) neuropathic pain model, hot plate test; assay type: in vivo; details: 30 mg/kg i.p.
Method: (§1) Behavioral experiments were carried out in male Albino Swiss (CD-1) mice weighing 18–22 g. The mice were kept in cages, in groups of 10 animals. They had free access to food and water before experiments, and were maintained at room temperature 22–24 °C, under 12:12 (light/dark) cycle. For the assays the animals were selected randomly. After the experiments the animals were euthanized by cervical dislocation. Experimental procedures for in vivo tests were approved by the Local Ethics Committee of the Jagiellonian University in Krakow (Approval No. 33/2018; release date: 1.02.2018) and the treatment of animals was performed in full accordance with ethical standards laid down in respective Polish and EU regulations (Directive 2010/63/EU).
Oxaliplatin was purchased from Activate Scientific GmbH (Prien, Germany). PTZ and STZ were provided by Merck KGaA (Darmstadt, Germany). […]
(§2) To induce type I diabetes and diabetic neuropathic pain, mice were administered STZ, an alkylating antitumor drug that destroys insulin-secreting islet cells. […] Blood glucose levels were measured 1 day before (referred to as ‘day 0′) and repeatedly 1, 2 and 3 weeks after STZ injection using a blood glucose monitoring system (AccuChek Active, Roche, France). […]
The effect of 1 on heat hyperalgesia was assessed using the hot plate test. […]

[2] = tested on: tactile allodynia in diabetic mice; test: diabetic (STZ) neuropathic pain model, von Frey test; assay type: in vivo; details: 30 mg/kg i.p.
Method: Behavioral experiments were carried out in male Albino Swiss (CD-1) mice weighing 18–22 g. The mice were kept in cages, in groups of 10 animals. They had free access to food and water before experiments, and were maintained at room temperature 22–24 °C, under 12:12 (light/dark) cycle. For the assays the animals were selected randomly. After the experiments the animals were euthanized by cervical dislocation. […]
as §2
The electronic von Frey unit (Bioseb, France) is supplied with a single flexible filament applying increasing force (from 0 to 10 g) against the plantar surface of the hind paw. In this assay the nocifensive paw withdrawal response automatically turns off the stimulus and the mechanical pressure that evoked the response was recorded. […]

[3] = tested on: SH-SY5Y neuroblastoma cells; test: cell viability, MTS assay; assay type: cell-based, human; details: 24 h incubation, 1–100 µM
Method: (§3) All cell culture protocols and assay conditions were applied as we reported previously. SH-SY5Y (ATCC® CRL-2266™) cell line was purchased from ATCC (Manassas, VA, USA). IMR-32 (ATCC® CCL-127™) cell line was kindly provided by the Department of Oncogenomics, Academisch Medisch Centrum, Amsterdam, Holland. Before each test SH-SY5Y or IMR-32 cells were seeded in 96-well plates with transparent bottom at a concentration of 2.5 × 10^4 cells/well in 100 μL of respective cell culture medium and cultured for 24 h to reach 70% confluence. • Cell Viability
(§4) The CellTiter 96® AQueous Non-Radioactive Cell Proliferation Assay was purchased from Promega (Madison, WI, USA). After 24 h of cells incubation with compound 1 or 8 in the concentrations range 1–100 µM the MTS-based labeling mixture was added to each well and cells were incubated under the same conditions for 2–3 h. The absorbance was measured using a microplate reader EnSpire (PerkinElmer, Waltham, MA, USA) at 490 nm. All measurements were performed in triplicate and results are shown as mean ± SD. • Lactate Dehydrogenase Test

[4] = tested on: IMR-32 neuroblastoma cells; test: cell viability, MTS assay; assay type: cell-based, human; details: IMR-32, 24 h incubation, 1–100 µM
Method: as §3, §4

[5] = tested on: SH-SY5Y neuroblastoma cells; test: neuroprotection against 6-OHDA-induced LDH release; assay type: cell-based, human; details: compound 50 µM
Method: as §3
(§5) CytoTox-ONE™ Homogeneous Membrane Integrity Assay, which based on the LDH release, was purchased from Promega (Madison, WI, USA). SH-SY5Y or IMR-32 cells were seeded in 96-well white plates with transparent bottom. For neuroprotective studies, the cells were preincubated first for 1 h with compound 1, 8 or reference antioxidants AA, TX (all at the concentration of 50 μM) and next the neurotoxin 6-OHDA (Sigma-Aldrich, Inc., St. Louis, MO, USA) was added at final concentration of 50 μM (SH-SY5Y assay) or 200 µM (IMR-32 assay). After 24 h of incubation, the CytoTox-ONE™ was added to each well and the cells were incubated next for 10 min at room temperature. The fluorescence was measured using a microplate reader EnSpire (PerkinElmer, Waltham, MA, USA) with an excitation wavelength of 560 nm and an emission wavelength of 590 nm. All measurements were performed in triplicate and results are shown as mean ± SD. The similar studies were also performed with SH-SY5Y cells injured by 100 μM of 6-OHDA (Figure S1, Supporting Materials). • ROS Assay

[6] = tested on: IMR-32 neuroblastoma cells; test: neuroprotection against 6-OHDA-induced LDH release; assay type: cell-based, human; details: IMR-32, compound 50 µM, 1 h pretreatment, 200 µM 6-OHDA, 24 h
Method: as §3, §5

[7] = tested on: electrically induced seizures in mice; test: maximal electroshock (MES) test; assay type: in vivo; details: 100 mg/kg i.p.
Method: as §1
Oxaliplatin was purchased from Activate Scientific GmbH (Prien, Germany). PTZ and STZ were provided by Merck KGaA (Darmstadt, Germany). For the in vivo tests, the compound 1 was suspended in 1% Tween 80 solution (Polskie Odczynniki Chemiczne, Gliwice, Poland), then being administered intraperitoneally 1 h before tests. For the evaluation of anticonvulsant properties of the test compound, a fixed dose of 100 mg/kg, was used. Since many AEDs at lower doses are used as analgesic drugs, for pain tests the doses 10 and 30 mg/kg were selected.
MES test was performed as described previously. […]

NC(Cc1cc(-c2cc(O)ccc2O)c(Cl)c([N+](=O)[O-])c1)C(=O)O (stereo not drawn) [Compound 1]
antihyperalgesic activity, hot plate test (latency to pain reaction) [1]: antihyperalgesic activity was not observed
antiallodynic activity, von Frey test [2]: not able to attenuate tactile allodynia
cell viability [3]: no influence on cell viability
cell viability [4]: no influence on cell viability
6-OHDA-induced release of LDH (neuroprotection) ([5]; 100 µM 6-OHDA): neuroprotective effect was not observed
6-OHDA-induced release of LDH (neuroprotection) ([5]; 1 h pretreatment, 50 µM 6-OHDA, 24 h): statistically significant decrease
6-OHDA-induced release of LDH (neuroprotection) [6]: statistically significant decrease
Mortality rate (%) [7]: 25%
X/Y, number of mice protected (X) per number of mice tested (Y) ([7]; 1 h before test): 0/4
